From patent US11186599B2, “Phosphonamide ester compound, salt thereof, related crystal form thereof, preparation method therefor and use thereof” (SICHUAN KELUN-BIOTECH BIOPHARMACEUTICAL CO., LTD., priority 2018, dated 2021)
Values after ≈ are worked out from the molar mass of the structure shown. Like-named read-outs stand apart in the source and are kept apart here.

What was measured:
[1] = Solubility determination (shaking 24 hours, HPLC); type: physicochemical; conditions: for solubility at 24 h: thermodynamic from solid, shaking 24 hours
Protocol: An aqueous solution of pH 2.0 (the pH was adjusted with an appropriate amount of hydrochloric acid), an aqueous solution of pH 7.4 (the pH was adjusted with 10 mM potassium dihydrogen phosphate and an appropriate amount of NaOH), and a fasted-state simulated intestinal fluid (FaSSIF) were prepared as solvents, respectively. Several portions of the sample for test, 1 mg each, were weighed and dissolved in different solvents, 1 mL each. The solutions were thoroughly shaked, and then subjected to ultrasonic operation for 5 minutes. […] After shaking in a constant temperature shaking water bath for 24 hours, filtration was carried out through a 0.45 uM aqueous filter membrane, followed by HPLC analysis for determination of the solubility.

[2] = Hygroscopicity test by dynamic vapor sorption (DVS); type: physicochemical; conditions: 25° C.
Protocol: The hygroscopicity of crystalline forms A and B of the fumarate salt was measured by dynamic vapor sorption (DVS) using a DVS Intrinsic (SMS) at 25° C. in a cycle-DMDT mode.

[3] = Physicochemical stability test, placed open at 40° C./75% RH; conditions: placed open 14 days at 40° C./75% RH
Protocol: An appropriate amount of crystalline form A of the fumarate salt of the compound of Formula (I) of the invention was detected for the physicochemical stability thereof under the following conditions: placed open for 14 days at 40° C./75% RH. XRPD and LC-MS analysis were then carried out to determine the crystalline form and the change in purity.

[4] = Pharmacokinetic experiment in beagle dogs; type: in vivo; conditions: 2.5 mg/kg, capsules intragastrically
Protocol: The crystalline forms A and C of the fumarate salt of the compound of Formula (I) were encapsulated into capsules and administered intragastrically to beagle dogs at a dose of 2.5 mg/kg. Venous blood was collected at different time points after administration and separately subjected to the detection of the original free base form of the compound of Formula (I) and its metabolite tenofovir (TFV).

[5] = phase III clinical trial, cited from earlier work
[6] = beagle, dog, venous blood, po, analyte: free base of the compound of Formula (I)
[7] = analyte: free base of the compound of Formula (I), listed as crystalline form A of the fumarate salt
[8] = analyte: free base of the compound of Formula (I), listed as crystalline form C of the fumarate salt

C[C@H](Cn1cnc2c(N)ncnc21)OC[P@@](=O)(NCCOCc1ccccc1)Oc1ccccc1 [listing 1 of 3 here]
solubility at 24 h ([1]; aqueous solution of pH 2.0, simulated gastric fluid, aqueous solution pH 2.0 (hydrochloric acid), read-out: Solubility, H2O (pH 2.0)): 1000 µg/mL (≈ 2010 µM) | solubility at 24 h ([1]; aqueous solution of pH 7.4, aqueous buffer, aqueous solution pH 7.4 (10 mM potassium dihydrogen phosphate/NaOH), read-out: Solubility, H2O (pH 7.4)): 990 µg/mL (≈ 1990 µM) | solubility at 24 h ([1]; fasted-state simulated intestinal fluid (FaSSIF), FaSSIF, read-out: Solubility, fasted-state simulated intestinal fluid (FaSSIF)): 910 µg/mL (≈ 1830 µM) | Solubility (in words) ([1]; water and fasted-state intestinal fluid): good solubility | Hygroscopicity (in words) ([2]; DVS): little or no hygroscopicity | Mass change caused by moisture absorption (%) ([2]; target humidity 0%): 0% | Mass change caused by moisture absorption (%) ([2]; target humidity 10%): 0.019% | Mass change caused by moisture absorption (%) ([2]; target humidity 20%, listed as crystalline form A of the fumarate salt): 0.04% | Mass change caused by moisture absorption (%) ([2]; target humidity 30%): 0.057% | Mass change caused by moisture absorption (%) ([2]; target humidity 40%): 0.078% | Mass change caused by moisture absorption (%) ([2]; target humidity 50%): 0.096% | Mass change caused by moisture absorption (%) ([2]; target humidity 60%): 0.117% | Mass change caused by moisture absorption (%) ([2]; target humidity 70%): 0.137% | Mass change caused by moisture absorption (%) ([2]; target humidity 80%): less than 0.2% | Mass change caused by moisture absorption (%) ([2]; target humidity 80%, listed as crystalline form A of the fumarate salt): 0.158% | Mass change caused by moisture absorption (%) ([2]; target humidity 90%): less than 0.2% | Mass change caused by moisture absorption (%) ([2]; target humidity 90%, listed as crystalline form A of the fumarate salt): 0.192% | Relative purity after storage ([3]; LC-MS): up to 99% | Change after storage (crystalline form and purity, in words) ([3]; XRPD and LC-MS): without significant change | AUC(0-inf) [4, 6]: 66.7 ng·h/mL | AUC(0-t) [4, 6]: 66.2 ng·h/mL | half-life [4, 6]: 33 min | Cmax ([4]; beagle, dog, venous blood, po, analyte: free base of the compound of Formula (I), read-out: Cmax): 67.4 ng/mL | Conversion to TFV (in words) [4]: rapidly converted to TFV | MRTINF [4, 7]: 73.2 min | Tmax [4, 7]: 41.4 min

C[C@H](Cn1cnc2c(N)ncnc21)OC[P@@](=O)(NCCOCc1ccccc1)Oc1ccccc1 [listing 2 of 3 here]
Mass change caused by moisture absorption (%) ([2]; target humidity 20%): 0.2%

C[C@H](Cn1cnc2c(N)ncnc21)OC[P@@](=O)(NCCOCc1ccccc1)Oc1ccccc1 [listing 3 of 3 here]
AUCINF [4, 8]: 43.4 ng·h/mL | AUClast [4, 8]: 41.7 ng·h/mL | Cmax [4, 8]: 77.5 ng/mL | MRTINF [4, 8]: 33.6 min | T1/2 [4, 8]: 17.4 min | Tmax [4, 8]: 18.6 min

CC(C)OC(=O)[C@H](C)N[P@](=O)(CO[C@H](C)Cn1cnc2c(N)ncnc21)Oc1ccccc1 [TAF, Tenofovir alafenamide]
ALT recovery rate ([5]; patients): lower than 80% | Patients in whom glomerular filtration rate decreased by more than 25% ([5]; share of patients): more than 10% | Patients in whom spinal bone mineral density (BMD) decreased by more than 5% ([5]; share of patients): more than 10%
